The record followed here is patent US20250064941A1, “SIGLEC LIGANDS, CONJUGATES, AND METHODS OF USE THEREOF” (Osprey Biopharmaceuticals, Inc., priority 2023, published 2025).

Each structure is given as a SMILES string. pKd: −log10 of the molar value. Bounds are passed on as bounds.

The target in experiment [1] is T1, human Siglec-2/CD22 protein (Homo sapiens, UniProt P20273).
T1 construct: purchased Acro Biosystems SI2-H82E3
T1 sequence (P20273 20-847): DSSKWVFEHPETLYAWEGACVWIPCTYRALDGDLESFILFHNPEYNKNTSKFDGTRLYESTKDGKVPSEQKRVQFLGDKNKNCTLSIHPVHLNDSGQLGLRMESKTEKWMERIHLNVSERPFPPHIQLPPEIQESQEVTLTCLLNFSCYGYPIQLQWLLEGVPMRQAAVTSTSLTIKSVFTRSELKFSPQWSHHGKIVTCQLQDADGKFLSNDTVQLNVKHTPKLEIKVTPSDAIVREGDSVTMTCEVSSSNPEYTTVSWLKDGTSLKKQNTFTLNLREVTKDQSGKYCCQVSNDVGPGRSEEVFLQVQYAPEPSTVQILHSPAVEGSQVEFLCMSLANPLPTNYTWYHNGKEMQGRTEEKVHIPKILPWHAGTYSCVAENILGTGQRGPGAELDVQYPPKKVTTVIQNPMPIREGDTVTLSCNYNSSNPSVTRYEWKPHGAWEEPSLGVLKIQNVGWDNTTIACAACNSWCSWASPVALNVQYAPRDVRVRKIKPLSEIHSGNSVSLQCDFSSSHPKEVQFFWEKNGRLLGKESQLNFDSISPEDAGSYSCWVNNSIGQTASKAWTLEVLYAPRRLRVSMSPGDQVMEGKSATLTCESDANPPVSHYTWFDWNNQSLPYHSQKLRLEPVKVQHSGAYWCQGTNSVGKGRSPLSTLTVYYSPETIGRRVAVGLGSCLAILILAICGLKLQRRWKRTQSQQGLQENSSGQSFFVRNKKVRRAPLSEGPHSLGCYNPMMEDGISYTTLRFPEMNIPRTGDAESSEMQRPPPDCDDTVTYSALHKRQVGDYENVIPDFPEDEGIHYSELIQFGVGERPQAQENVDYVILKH
Kind of experiment: SPR binding affinity to human CD22. The note with it: steady-state analysis. As to the method:
(§1) Prior to immobilization, CD22 proteins were treated with SialoExo (Genovis, Cat #G1-SM1-020) for 4 hours at 37° C. to remove native sialic acid residues.
(§2) Capture of biotinylated CD22 constructs was performed using a Cytiva SA chip (BR100398) on a Biacore 8K instrument.
(§3) Binding experiments of Siglec-ligand conjugated proteins or Siglec ligand compounds were performed on the surfaces prepared above in 10 mM HEPES, 150 mM NaCl, 0.05% Tween-20, pH 7.5, 1% DMSO as the running buffer. […] The compounds were then allowed to dissociate from the surface for 120 seconds. […] Solvent correction was performed using 0.5, 1, 1.5, and 2% DMSO spike into running buffer without DMSO. […] Data was analyzed using steady-state analysis in Biacore Insight Evaluation Software, version 3.0 for Siglec ligand compounds.
Background: Surface plasmon resonance follows binding to a sensor surface in real time, without labels.

Experiment [2] deals with T2, mouse Siglec-2-Fc-Avi (CD22) (Mus musculus, UniProt P35329).
T2 construct: made in house
T2 sequence (P35329 22-708 limits assumed): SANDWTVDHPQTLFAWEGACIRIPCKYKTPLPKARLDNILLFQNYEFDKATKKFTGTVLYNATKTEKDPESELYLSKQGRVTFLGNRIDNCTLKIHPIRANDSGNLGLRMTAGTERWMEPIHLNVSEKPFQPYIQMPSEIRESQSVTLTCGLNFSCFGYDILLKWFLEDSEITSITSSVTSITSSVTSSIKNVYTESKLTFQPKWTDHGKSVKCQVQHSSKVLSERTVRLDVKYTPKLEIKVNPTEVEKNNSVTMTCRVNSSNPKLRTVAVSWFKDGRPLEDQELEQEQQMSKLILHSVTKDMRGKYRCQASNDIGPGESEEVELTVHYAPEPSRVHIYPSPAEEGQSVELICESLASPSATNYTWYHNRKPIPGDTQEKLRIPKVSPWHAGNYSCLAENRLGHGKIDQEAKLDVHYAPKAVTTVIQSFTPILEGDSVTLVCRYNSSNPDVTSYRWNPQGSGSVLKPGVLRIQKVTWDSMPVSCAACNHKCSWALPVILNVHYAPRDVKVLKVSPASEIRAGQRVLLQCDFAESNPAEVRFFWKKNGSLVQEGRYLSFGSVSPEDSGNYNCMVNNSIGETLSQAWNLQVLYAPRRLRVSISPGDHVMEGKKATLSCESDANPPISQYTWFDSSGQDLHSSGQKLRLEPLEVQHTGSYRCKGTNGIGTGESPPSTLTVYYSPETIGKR
Kind of experiment: SPR binding affinity to mouse CD22. The note with it: steady-state analysis. As to the method: as §1, §2, §3

A further experiment concerns the target cynomolgus Siglec-2/CD22 (Macaca fascicularis, UniProt A0A2K5WCZ6). Kind of experiment: biochemical. The experiment is classed as binding. The note with it: SPR, steady-state analysis; read-out: Affinity cyno CD22. As to the method:
as §1
Surface preparation for cyno CD22 protein consisted of amine coupling to Cytiva CM5 chip (Cytiva, Cat #BR100530) using the Cytiva amine coupling kit Type 2 (Cytiva, Cat #BR100633). Following the standard amine coupling protocols, EDC and NHS from the kit were mixed 1:1 and injected over flow cells 1 and 2. […] Any active carboxy groups were then capped with 1M Ethanolamine, pH 8.5 for 420s on flow cells 1 and 2.
as §3

Chain of cynomolgus Siglec-2/CD22 (A0A2K5WCZ6 entry or part of it): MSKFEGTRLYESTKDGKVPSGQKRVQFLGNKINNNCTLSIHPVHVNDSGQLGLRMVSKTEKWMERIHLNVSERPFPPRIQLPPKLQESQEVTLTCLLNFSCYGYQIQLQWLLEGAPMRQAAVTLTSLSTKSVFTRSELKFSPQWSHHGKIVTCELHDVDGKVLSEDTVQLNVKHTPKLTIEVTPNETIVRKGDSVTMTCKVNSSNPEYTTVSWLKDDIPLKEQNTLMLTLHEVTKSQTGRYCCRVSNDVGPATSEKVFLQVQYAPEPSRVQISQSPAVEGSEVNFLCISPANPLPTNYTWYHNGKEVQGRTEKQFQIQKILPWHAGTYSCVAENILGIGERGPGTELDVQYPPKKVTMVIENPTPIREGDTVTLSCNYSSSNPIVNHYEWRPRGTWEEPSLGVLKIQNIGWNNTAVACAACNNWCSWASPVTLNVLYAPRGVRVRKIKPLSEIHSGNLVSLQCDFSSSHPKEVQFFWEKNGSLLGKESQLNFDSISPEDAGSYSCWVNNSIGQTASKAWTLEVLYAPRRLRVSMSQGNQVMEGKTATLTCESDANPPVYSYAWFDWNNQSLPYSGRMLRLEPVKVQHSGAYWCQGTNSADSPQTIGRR

Regarding `C#CCOCCCCCCO[C@]1(C(=O)O)C[C@H](O)[C@@H](NC(=O)CO)[C@H]([C@H](O)[C@H](O)CNC(=O)Cc2ccc(-c3ccc4[nH]cc(C)c4c3)cc2)O1` [Compound 1, (2R,4S,5R,6R)-6-((1R,2R)-1,2-dihydroxy-3-(2-(4-(3-methyl-1H-indol-5-yl)phenyl)acetamido)propyl)-4-hydroxy-5-(2-hydroxyacetamido)-2-((6-(prop-2-yn-1-yloxy)hexyl)oxy)tetrahydro-2H-pyran-2-carboxylic acid], the pKd (in experiment [1]; in experiment [2]; at cynomolgus Siglec-2/CD22) was above 6.00 each time.
`C#CCOCCOCCO[C@]1(C(=O)O)C[C@H](O)[C@@H](NC(=O)CO)[C@H]([C@H](O)[C@H](O)CNC(=O)Cc2ccc(-c3ccc4[nH]ccc4c3)cc2)O1` [Compound 4, (2R,4S,5R,6R)-6-((1R,2R)-3-(2-(4-(1H-indol-5-yl)phenyl)acetamido)-1,2-dihydroxypropyl)-4-hydroxy-5-(2-hydroxyacetamido)-2-(2-(2-(prop-2-yn-1-yloxy)ethoxy)ethoxy)tetrahydro-2H-pyran-2-carboxylic acid]: the pKd (in experiment [1]; in experiment [2]; on cynomolgus Siglec-2/CD22) was above 6.00 in each case.
`C#CCOCCCCCCO[C@]1(C(=O)O)C[C@H](O)[C@@H](NC(=O)CO)[C@H]([C@H](O)[C@H](O)CNC(=O)Cc2ccc3cc[nH]c3c2)O1` [Compound 5, (2R,4S,5R,6R)-6-((1R,2R)-3-(2-(1H-indol-6-yl)acetamido)-1,2-dihydroxypropyl)-4-hydroxy-5-(2-hydroxyacetamido)-2-((6-(prop-2-yn-1-yloxy)hexyl)oxy)tetrahydro-2H-pyran-2-carboxylic acid]: the values for the pKd (in experiment [1]; in experiment [2]; on cynomolgus Siglec-2/CD22) were above 6.00, 5.00 to 6.00 and above 6.00, respectively.
As to `C#CCOCCCCCCO[C@]1(C(=O)O)C[C@H](O)[C@@H](NC(=O)CO)[C@H]([C@H](O)[C@H](O)CNC(=O)Cc2ccc3[nH]ccc3c2)O1` [Compound 6, (2R,4S,5R,6R)-6-((1R,2R)-3-(2-(1H-indol-5-yl)acetamido)-1,2-dihydroxypropyl)-4-hydroxy-5-(2-hydroxyacetamido)-2-((6-(prop-2-yn-1-yloxy)hexyl)oxy)tetrahydro-2H-pyran-2-carboxylic acid], the pKd in experiment [1] is above 6.00; in experiment [2] it was 5.00 to 6.00; on cynomolgus Siglec-2/CD22 it was above 6.00.
As to `C#CCCOc1ccc(CO[C@]2(C(=O)O)C[C@H](O)[C@@H](NC(=O)CO)[C@H]([C@H](O)[C@H](O)CNC(=O)Cc3ccc4[nH]c(=O)[nH]c4c3)O2)cc1` [Compound 7, (2R,4S,5R,6R)-2-((4-(but-3-yn-1-yloxy)benzyl)oxy)-6-((1R,2R)-1,2-dihydroxy-3-(2-(2-oxo-2,3-dihydro-1H-benzo[d]imidazol-5-yl)acetamido)propyl)-4-hydroxy-5-(2-hydroxyacetamido)tetrahydro-2H-pyran-2-carboxylic acid], the pKd in experiment [1] is 5.00 to 6.00; in experiment [2], below 5.00; at cynomolgus Siglec-2/CD22, below 5.00.
`C#CCCOc1ccc(CO[C@]2(C(=O)O)C[C@H](O)[C@@H](NC(=O)CO)[C@H]([C@H](O)[C@H](O)CNC(=O)Cc3ccc4nc[nH]c4c3)O2)cc1` [Compound 8, (2R,4S,5R,6R)-6-((1R,2R)-3-(2-(1H-benzo[d]imidazol-6-yl)acetamido)-1,2-dihydroxypropyl)-2-((4-(but-3-yn-1-yloxy)benzyl)oxy)-4-hydroxy-5-(2-hydroxyacetamido)tetrahydro-2H-pyran-2-carboxylic acid]: the pKd (in experiment [1]; in experiment [2]; at cynomolgus Siglec-2/CD22) was 5.00 to 6.00 throughout.
As for `C#CCCOc1ccc(CO[C@]2(C(=O)O)C[C@H](O)[C@@H](NC(=O)CO)[C@H]([C@H](O)[C@H](O)CNC(=O)Cc3ccc4nn[nH]c4c3)O2)cc1` [Compound 9, (2R,4S,5R,6R)-6-((1R,2R)-3-(2-(1H-benzo[d][1,2,3]triazol-6-yl)acetamido)-1,2-dihydroxypropyl)-2-((4-(but-3-yn-1-yloxy)benzyl)oxy)-4-hydroxy-5-(2-hydroxyacetamido)tetrahydro-2H-pyran-2-carboxylic acid], the pKd (in experiment [1]; in experiment [2]; at cynomolgus Siglec-2/CD22) was 5.00 to 6.00 in each case.
Regarding `C#CCOCCOCCO[C@]1(C(=O)O)C[C@H](O)[C@@H](NC(=O)CO)[C@H]([C@H](O)[C@H](O)CNC(=O)Cc2ccc3c(c2)NC(=O)C3)O1` [Compound 12, (2R,4S,5R,6R)-6-((1R,2R)-1,2-dihydroxy-3-(2-(2-oxoindolin-6-yl)acetamido)propyl)-4-hydroxy-5-(2-hydroxyacetamido)-2-(2-(2-(prop-2-yn-1-yloxy)ethoxy)ethoxy)tetrahydro-2H-pyran-2-carboxylic acid], the figures for the pKd (in experiment [1]; on cynomolgus Siglec-2/CD22) were 5.00 to 6.00 and below 5.00, respectively.
Consider `C#CCOCCOCCO[C@]1(C(=O)O)C[C@H](O)[C@@H](NC(=O)CO)[C@H]([C@H](O)[C@H](O)CNC(=O)Cc2ccc(-c3ccncc3)cc2)O1` [Compound 72, (2R,4S,5R,6R)-6-((1R,2R)-1,2-dihydroxy-3-(2-(4-(pyridin-4-yl)phenyl)acetamido)propyl)-4-hydroxy-5-(2-hydroxyacetamido)-2-(2-(2-(prop-2-yn-1-yloxy)ethoxy)ethoxy)tetrahydro-2H-pyran-2-carboxylic acid], for which the figures for the pKd (in experiment [1]; at cynomolgus Siglec-2/CD22) were 5.00 to 6.00 and below 5.00, respectively.
As to `CC(=O)NCCOCCOCCOCCOCCNC(=O)NCCCCCCO[C@]1(C(=O)O)C[C@H](O)[C@@H](NC(C)=O)[C@H]([C@H](O)[C@H](O)CNC(=O)c2cccc(Cl)c2)O1` [Compound 269, (2R,4S,5R,6R)-5-acetamido-6-((1R,2R)-3-(3-chlorobenzamido)-1,2-dihydroxypropyl)-2-((2,19-dioxo-6,9,12,15-tetraoxa-3,18,20-triazahexacosan-26-yl)oxy)-4-hydroxytetrahydro-2H-pyran-2-carboxylic acid], the pKd in experiment [1] is 5.00 to 6.00; in experiment [2] it was below 5.00.
With `CC(=O)NCCOCCOCCOCCOCCNC(=O)CCCCCCO[C@]1(C(=O)O)C[C@H](O)[C@@H](NC(C)=O)[C@H]([C@H](O)[C@H](O)CNC(=O)c2cccc(Cl)c2)O1` [Compound 270, (2R,4S,5R,6R)-5-acetamido-6-((1R,2R)-3-(3-chlorobenzamido)-1,2-dihydroxypropyl)-2-((2,19-dioxo-6,9,12,15-tetraoxa-3,18-diazapentacosan-25-yl)oxy)-4-hydroxytetrahydro-2H-pyran-2-carboxylic acid], the values for the pKd in experiment [1] and in experiment [2] were 5.00 to 6.00 and below 5.00, respectively.
